Test results from publication PMC3076939 (Biochemistry, 2011).

How the values were obtained:
[1] = test system: C-terminal processing of PHI(1–27); format: biochemical, mouse; conditions: PHI(1–27) with membrane lysate 1 mg/mL in PBS, 37 °C, 15 min, LC-MS; o-phenanthroline 1 mM, phosphoamidon 10 µM
[2] = biological target: DPP4 (Mus musculus, UniProt P28843); format: biochemical
[3] = human plasma; conditions: cited from earlier work
[4] = plasma; conditions: cited from earlier work

Chain of DPP4 (P28843 whole entry): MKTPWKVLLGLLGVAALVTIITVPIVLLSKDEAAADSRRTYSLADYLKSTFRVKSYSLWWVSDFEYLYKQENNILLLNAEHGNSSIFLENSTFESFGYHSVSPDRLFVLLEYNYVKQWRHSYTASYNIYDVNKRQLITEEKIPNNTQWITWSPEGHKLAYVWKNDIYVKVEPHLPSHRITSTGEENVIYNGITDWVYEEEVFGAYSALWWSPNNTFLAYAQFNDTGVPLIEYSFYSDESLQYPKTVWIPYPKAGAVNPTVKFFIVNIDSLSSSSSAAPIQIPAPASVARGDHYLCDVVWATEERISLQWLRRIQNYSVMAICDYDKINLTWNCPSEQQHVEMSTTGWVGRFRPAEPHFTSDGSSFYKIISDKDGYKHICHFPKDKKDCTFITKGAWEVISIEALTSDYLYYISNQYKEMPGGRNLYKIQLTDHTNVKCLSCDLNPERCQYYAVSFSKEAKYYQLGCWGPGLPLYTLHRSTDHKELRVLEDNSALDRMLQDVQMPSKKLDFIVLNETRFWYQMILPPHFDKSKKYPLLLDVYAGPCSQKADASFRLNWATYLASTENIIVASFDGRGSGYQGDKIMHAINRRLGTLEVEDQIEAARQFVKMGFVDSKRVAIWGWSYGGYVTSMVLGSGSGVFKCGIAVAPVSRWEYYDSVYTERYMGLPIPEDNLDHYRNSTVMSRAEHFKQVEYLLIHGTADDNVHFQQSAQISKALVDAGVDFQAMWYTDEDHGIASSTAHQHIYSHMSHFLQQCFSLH

Compound | effect on C-terminal processing of PHI(1–27) (PHI(1–22) production) [1] | other results
c1cnc2c(c1)ccc1cccnc12 [1,10-phenanthroline] | reducing the production of PHI(1–22) | –
CNC(=O)[C@H](Cc1c[nH]c2ccccc12)NC(=O)[C@@H](CC(=O)NO)CC(C)C [GM6001] | no impact | –
O=S(=O)(F)Cc1ccccc1 [PMSF, phenylmethylsulfonyl fluoride] | – | inhibition of the production of PHI(3–27) (N-terminal processing) [2]: strongly inhibited the production of PHI(3–27)
CC(C)C[C@H](NP(=O)(O)O[C@@H]1O[C@@H](C)[C@H](O)[C@@H](O)[C@H]1O)C(=O)N[C@@H](Cc1c[nH]c2ccccc12)C(=O)O [phosphoramidon] | no impact | –
HAEGTFTSDVSSYLEGQAAKEFIAWLVKGRG-CONH2 | – | fragment found [3]: GLP-1(9–36); fragment found [4]: GLP-1(9–36), major
